# Calls of active or inactive are those of the source. The rule behind the calls is not given here.
# Columns and labels:
# [1] = system: Human immunodeficiency virus 1; assay: Antiviral activity against HIV1 3B infected in human CD4+ T-lymphocyte CEM cells assessed as inhibition of virus-induced cytopathicity after 4 to 5 days by microscopic analysis; type: functional, organism-based; settings: Human immunodeficiency virus 1, 3B, CCRF-CEM
# [2] = system: Human immunodeficiency virus 2; assay: Antiviral activity against HIV2 ROD infected in human CD4+ T-lymphocyte CEM cells assessed as inhibition of virus-induced cytopathicity after 4 to 5 days by microscopic analysis; type: functional, organism-based; settings: Human immunodeficiency virus 2, ISOLATE ROD, CCRF-CEM
# CCRF-CEM = assay: Cytotoxicity against human CD4+ T-lymphocyte CEM cells; type: cell-based
# [3] = system: Human immunodeficiency virus 1; assay: Binding affinity to recombinant HIV1 3B glycoprotein-120 after 5 mins by sensorchip direct surface plasmon resonance assay
# [4] = Inhibition of HIV integrase-mediated 3'-processing activity using 5'-[gamma-32P]-labeled full length 21T DNA after 2 hrs; design: species or system Human immunodeficiency virus
# [5] = system: Human immunodeficiency virus 1; assay: Binding affinity to recombinant HIV1 3B glycoprotein-120 at 5 uM after 5 mins by sensorchip direct surface plasmon resonance assay in presence of 100 and 400 uM mann (alpha-1,3-1,6)3
# [6] = system: Human immunodeficiency virus 1; assay: Binding affinity to recombinant HIV1 3B glycoprotein-120 at 5 uM after 5 mins by sensorchip direct surface plasmon resonance assay in presence of 100 and 400 uM mann (alpha-1,2)3
# [7] = Inhibition of HIV integrase-mediated strand transfer activity using precleaved 19T duplex oligonucleotide after 2 hrs; design: species or system Human immunodeficiency virus
# [8] = system: Human immunodeficiency virus 1; assay: Binding affinity to recombinant HIV1 3B glycoprotein-120 after 5 mins by sensorchip reverse surface plasmon resonance assay
# [9] = system: Human immunodeficiency virus; assay: Inhibition of HIV integrase-mediated strand transfer activity using 5'-[gamma-32P]-labeled full length 21T DNA at 50 nM after 2 hrs
structure (smiles),measurement,setting,value
CCc1c(CNC(=O)c2ccc(O)cc2O)c(CC)c(CNC(=O)c2ccc(O)cc2O)c(CC)c1CNC(=O)c1ccc(O)cc1O,EC50,[1],> 4 µM
same,EC50,[2],> 4 µM
same,CC50,CCRF-CEM,28 µM
CCc1c(CNCCCCNC(=O)c2ccc(O)c(O)c2O)c(CC)c(CNCCCCNC(=O)c2ccc(O)c(O)c2O)c(CC)c1CNCCCCNC(=O)c1ccc(O)c(O)c1O,EC50,[1],> 10 µM
same,EC50,[2],> 10 µM
same,CC50,CCRF-CEM,25 µM
CCc1c(CNC(=O)c2ccc[nH]2)c(CC)c(CNC(=O)c2ccc[nH]2)c(CC)c1CNC(=O)c1ccc[nH]1,EC50,[1],> 10 µM
same,EC50,[2],> 10 µM
same,CC50,CCRF-CEM,> 10 µM
CN[C@H]1[C@@H](O[C@H]2O[C@@H](CO)[C@H](O)[C@@H](OS(=O)(=O)O)[C@@H]2O)[C@H](O)[C@@H](O[C@H]2c3cc(C)c(C(=O)N[C@H](C)C(=O)O)c(O)c3-c3c(cc4c(c3O)C(=O)c3cc(OC)cc(O)c3C4=O)[C@@H]2O)O[C@H]1C,Activity,[3],Active
CCc1c(CNC(=O)c2c(O)cc(O)cc2O)c(CC)c(CNC(=O)c2c(O)cc(O)cc2O)c(CC)c1CNC(=O)c1c(O)cc(O)cc1O,EC50,[1],> 50 µM
same,EC50,[2],> 50 µM
same,CC50,CCRF-CEM,112 µM
CN[C@@H]1[C@H](O[C@@H]2OC[C@@H](O)[C@H](O)[C@H]2O)[C@@H](O)[C@H](O[C@H]2c3cc(C)c(C(=O)N[C@H](C)C(=O)O)c(O)c3-c3c(cc4c(c3O)C(=O)c3cc(OC)cc(O)c3C4=O)[C@@H]2O)O[C@@H]1C [PRADIMICIN A],EC50,[1],3.4 µM
same,CC50,CCRF-CEM,> 50 µM
CCc1c(CNC(=O)CCc2ccc(O)c(O)c2)c(CC)c(CNC(=O)CCc2ccc(O)c(O)c2)c(CC)c1CNC(=O)CCc1ccc(O)c(O)c1,EC50,[1],> 10 µM
same,EC50,[2],> 10 µM
same,CC50,CCRF-CEM,22 µM
CCc1c(CNC(=O)c2ccc(O)c(O)c2O)c(CC)c(CNC(=O)[C@H]2C[C@@H](C(=O)NCc3c(CC)c(CNC(=O)c4ccc(O)c(O)c4O)c(CC)c(CNC(=O)c4ccc(O)c(O)c4O)c3CC)C[C@@H](C(=O)NCc3c(CC)c(CNC(=O)c4ccc(O)c(O)c4O)c(CC)c(CNC(=O)c4ccc(O)c(O)c4O)c3CC)C2)c(CC)c1CNC(=O)c1ccc(O)c(O)c1O,EC50,[1],> 10 µM
same,EC50,[2],> 10 µM
same,CC50,CCRF-CEM,25 µM
CCc1c(CNC(=O)c2ccc(N)cc2)c(CC)c(CNC(=O)c2ccc(N)cc2)c(CC)c1CNC(=O)c1ccc(N)cc1,EC50,[1],> 250 µM
same,EC50,[2],> 250 µM
same,CC50,CCRF-CEM,> 250 µM
CCc1c(CNC(=O)C2=C[C@H](O)[C@H](O)[C@@H](O)C2)c(CC)c(CNC(=O)C2=C[C@H](O)[C@H](O)[C@@H](O)C2)c(CC)c1CNC(=O)C1=C[C@H](O)[C@H](O)[C@@H](O)C1,EC50,[1],> 250 µM
same,EC50,[2],> 250 µM
same,CC50,CCRF-CEM,> 250 µM
CCc1c(CNC(=O)c2ccc(N)nc2)c(CC)c(CNC(=O)c2ccc(N)nc2)c(CC)c1CNC(=O)c1ccc(N)nc1,EC50,[1],> 250 µM
same,EC50,[2],> 250 µM
same,CC50,CCRF-CEM,> 250 µM
CCc1c(CNC(=O)c2cccc(O)c2O)c(CC)c(CNC(=O)c2cccc(O)c2O)c(CC)c1CNC(=O)c1cccc(O)c1O,EC50,[1],> 2 µM
same,EC50,[2],> 2 µM
same,CC50,CCRF-CEM,5 µM
CCc1c(CNCCNC(=O)c2ccc(O)c(O)c2O)c(CC)c(CNCCNC(=O)c2ccc(O)c(O)c2O)c(CC)c1CNCCNC(=O)c1ccc(O)c(O)c1O,EC50,[1],> 10 µM
same,EC50,[2],> 10 µM
same,CC50,CCRF-CEM,117 µM
CCc1c(CNC(=O)C2C[C@H](O)C(O)[C@@H](O)C2)c(CC)c(CNC(=O)C2C[C@H](O)C(O)[C@@H](O)C2)c(CC)c1CNC(=O)C1C[C@H](O)C(O)[C@@H](O)C1 (some centres not stated),EC50,[1],> 250 µM
same,EC50,[2],> 250 µM
same,CC50,CCRF-CEM,> 250 µM
CCc1c(CNC(=O)c2ccc(O)c(O)c2O)c(CC)c(CNC(=O)c2ccc(O)c(O)c2O)c(CC)c1CNC(=O)c1ccc(O)c(O)c1O,IC50,[4],31 µM
same,EC50,[1],6.3 µM
same,EC50,[2],41 µM
same,Activity,[5],inactive
same,CC50,CCRF-CEM,144 µM
same,Activity,[6],inactive
same,Activity,[3],Active
same,IC50,[7],10.9 µM
CCc1c(CNC(=O)c2cc(O)c(O)c(O)c2)c(CC)c(CNC(=O)c2cc(O)c(O)c(O)c2)c(CC)c1CNC(=O)c1cc(O)c(O)c(O)c1,EC50,[1],> 10 µM
same,EC50,[2],> 10 µM
same,CC50,CCRF-CEM,49 µM
CCc1c(CN2CCN(C(=O)c3ccc(O)c(O)c3O)CC2)c(CC)c(CN2CCN(C(=O)c3ccc(O)c(O)c3O)CC2)c(CC)c1CN1CCN(C(=O)c2ccc(O)c(O)c2O)CC1,IC50,[4],42 µM
same,EC50,[1],> 10 µM
same,EC50,[2],> 10 µM
same,CC50,CCRF-CEM,36 µM
same,IC50,[7],5.6 µM
CCc1c(CNC(=O)CCC(=O)NCCCOCCOCCOCCCN)c(CC)c(CNC(=O)c2ccc(O)c(O)c2O)c(CC)c1CNC(=O)c1ccc(O)c(O)c1O,Activity,[8],Active
C[C@@H]1CCO[C@H]2Cn3cc(C(=O)NCc4ccc(F)cc4F)c(=O)c(O)c3C(=O)N12,inhibition,[9],> 50%

# From ChEMBL document CHEMBL3751817, “Anti-HIV-1 activity of a tripodal receptor that recognizes mannose oligomers” (Eur J Med Chem, 2015)
